Data as given in patent US6972298B2, “Method of treating or inhibiting neutrophil chemotaxis by administering a MEK inhibitor” (Warner-Lambert Company, priority 2001, dated 2005).
“Also recorded” adds a separate entry of the source. Like-named read-outs stand apart in the source and are kept apart here.

Key:
oral bioavailability = conditions: in vivo
IL-8-induced chemotaxis = conditions: cited from earlier work
IL-8 activation of ERK = IL-8 activation of ERK in human PMNs, Western blot with phospho-specific ERK antibody; assay type: cell-based; conditions: for inhibition of IL-8 activation of ERK at 0.1 μM: 0.1 μM inhibitor
Procedure: Activation of MAPK was examined by phospho-specific ERK antibody in isolated human PMNs that were stimulated with 3 nM of IL-8 for various periods of time (A). […] The effect of the inhibitors was monitored by measuring p-ERK activity by Western blotting. The blots were normalized using the ERK antibody.
(§1) Polymorphonuclear leukocytes (PMNs) were isolated from whole blood obtained from healthy human donors. Plasma was separated from the remainder of the blood using a Dextran density gradient. Red blood cells (RBCs) and PMNs were further isolated by centrifugation at 2500 rpm for 15 minutes, using a Lymphoprep sedimentation solution. RBCs were lysed with 0.2% NaCl, neutralized with 1.8% NaCl, and the remaining neutrophils were resuspended in RPMI binding buffer at a final concentration of 10 million cells/mL.
Neutrophils were preincubated with the respective inhibitor for 30 minutes at room temperature in 1.5-mL microfuge tubes prior to addition of IL-8 (3.125 nM). […] Thus, neutrophils were exposed to IL-8 for 5 minutes at room temperature, after which whole cell lysates were obtained via lysis with RIPA buffer and analyzed by Western blot analysis using phospho specific antibodies, p44/42 MAP (ERK) and p38 MAPK kinase. Standard Western blotting was performed using chemiluminescence. All blots were normalized with the respective nonphosphorylated antibodies.
To confirm IL-8 activation of ERK, neutrophils were stimulated with 3 nM of IL-8 for various periods of time, ranging from 0 to 30 minutes (FIG. 1A).
(§2) The role of PI3K in IL-8 activation of ERK has been controversial. […] In parallel, kinase assays were performed to examine the MEK1/2 activity in response to IL-8.

[1] = system: IL-8-stimulated neutrophil chemotaxis; test: In vitro neutrophil chemotaxis, IL-8, transwell chamber assay; assay type: cell-based, human; conditions: for inhibition at 0.01 µM: read-out: inhibition of chemotaxis at 0.01 μM, 0.01 μM inhibitor alone; for IC50: 3.125 nM IL-8, 3 hours
Procedure: Subsequently, the cells were stimulated with 3.125 nM of IL-8 for a period of 3 hours at which time the migrated cells were quantified using a cell sorter as described elsewhere. Percent inhibition was calculated based on the differences in the number of migrated cells compared to IL-8 alone controls.
The migrated cells were quantitated as described, and the percent inhibition was represented.
Number of cells migrated was measured 3 hours after IL-8 stimulation and expressed as percent control. Each value represents the average ±S.E. obtained from at least three different donors with duplicates in each set.
as §1
The neutrophil chemotaxis assay was conducted with 1 million cells per well in […] polycarbonate membrane transwell plates (Corning-Costar, Cambridge, Mass.). The various inhibitors were prepared as 1 or 10 mM stock solutions in dimethyl sulphoxide (DMSO). Inhibitor dilutions were prepared in RPMI binding buffer, maintaining a constant final concentration of DMSO in all conditions. Neutrophils were preincubated with the respective inhibitor in the top well of the plate for 30 minutes at room temperature prior to exposure to IL-8. An equivalent concentration of the respective inhibitor was placed in the bottom well to prevent any concentration gradient. DMSO concentration was maintained in all wells as a vehicle control. […] Neutrophils that migrated completely across the 3-μM filter were quantitated using FACS analysis with appropriate forward and sideward scatter. Percentage inhibition relative to the positive control (IL-8 alone) was calculated for each condition after subtracting the blank reading (no IL-8).

[2] = system: IL-8-induced neutrophil recruitment to the skin; test: IL-8 skin recruitment model (in vivo rabbit neutrophil recruitment assay)
Procedure: Three hours after the last dose, animals were injected with ^125I IL-8 (10μCi), and 10 minutes later various doses of cold (unlabeled) IL-8 was injected intradermally at local sites on the back of the rabbits. Sixty minutes later, the animals were sacrificed, punch biopsies were performed, and the radiation in the skin was measured using a gamma counter. Each value represents the average±standard deviation error of three representative experiments with three animals in each group and triplicates within each treatment. The asterisk indicates significant (p<0.05) differences between the respective treatments in control animals versus drug-administered animals. […]
In control rabbits, the vehicle was administered. […] The biopsies were weighed and sample-associated radioactivity was determined using a gamma counter (Packard Model #05005, Downers Grove, Ill.).
In each experiment, triplicate samples were obtained for each experimental condition. In studies where IL-8 was not tested or the highest 1-μg dose of IL-8 was not used, the data is expressed as either raw counts or adjusted counts. […] In dose-response studies where the 1-μg dose of IL-8 was used, the weight-normalization background (vehicle-treated skin) was subtracted from weight-normalized treated samples, and the data was then expressed as a percent maximal response to the 1-μg dose of IL-8. […]

MEK1/2 = test: kinase assays of MEK1/2 activity in response to IL-8; assay type: cell-based, human; conditions: pre-treatment with inhibitor
Procedure: as §2

colon cancer cells = conditions: read-out: IC50, decrease of endogenous constitutive MAPK activation or growth in soft agar; cited from earlier work
[3] = in vivo; cited from earlier work
PMNs = test: cytotoxicity on the PMNs; conditions: higher concentrations of the drug

In the case of `COc1cccc(-c2cc(=O)c3ccccc3o2)c1N` [2-(2-amino-3-methoxy-phenyl)-chromen-4-one], the oral bioavailability (oral bioavailability) is listed as “orally nonbioavailable” and the “inhibition of IL-8-induced chemotaxis in previous studies” value (IL-8-induced chemotaxis) is listed as “lack of inhibition”.
In the case of `O=C(NOCC1CC1)c1ccc(F)c(F)c1Nc1ccc(I)cc1Cl` [2-(2-chloro-4-iodo-phenylamino)-N-cyclopropylmethoxy-3,4-difluoro-benzamide], the “effect on IL-8-induced ERK activation at 0.01 μM” value (IL-8 activation of ERK; 0.01 μM inhibitor) is reported as “blocks ERK activation completely”, the “inhibition of IL-8 activation of ERK at 0.1 μM” value (IL-8 activation of ERK) is reported as “almost completely blocks; also recorded: completely inhibited” and the “inhibition of IL-8 activation of ERK at 0.1 μM” value (IL-8 activation of ERK; listed as 2-(2-Chloro-4-iodo-phenylamino)-N-cyclopropylmethoxy-3,4-difluoro-benzamide) is reported as “almost completely blocked”. The “inhibition of IL-8 activation of ERK” value (IL-8 activation of ERK; inhibitor 0 to 100 μM for 30 minutes, then IL-8 for 5 minutes) was “dose dependent inhibition; also recorded: clearly blocked”, the “inhibition of chemotaxis at 0.001 μM” value ([1]; 0.001 μM inhibitor, 3.125 nM IL-8) was “minimal inhibition” and the inhibition at 0.1 µM ([1]; Homo sapiens, Neutrophil, read-out: inhibition of chemotaxis at 0.1 nM IL-8, 0.1 μM inhibitor, 0.1 nM IL-8) was roughly 80%. The inhibition at 0.01 µM ([1]; Homo sapiens, Neutrophil) was roughly 50%, the inhibition at 0.1 µM ([1]; Homo sapiens, Neutrophil, read-out: inhibition of chemotaxis at 100 nM IL-8, 0.1 μM inhibitor, 100 nM IL-8) was roughly 30% and the IC50 ([1]; Homo sapiens, Neutrophil) was 140 nM. For the same molecule, the “maximal inhibition of IL-8-induced chemotaxis, compound alone” value ([1]; maximal block, single agent) was 60%, the “decrease of IL-8-induced neutrophil recruitment in vivo” value ([2]; 30 mg/kg PO three times at 8 hour intervals, higher IL-8 concentrations tested) was roughly 50% and the “number of neutrophils recruited to the skin” value ([2]; 30 mg/kg PO three times, all IL-8 concentrations tested) was “consistently decreased”. For the same molecule, the “inhibition of IL-8 activation of MEK1/2” value (MEK1/2) was “inhibited”, the IC50 (colon cancer cells) was 150 nM and the “bioavailability, as recently described” value [3] was “bioavailable”.
For `COC[C@H]1OC(=O)c2coc3c2[C@@]1(C)C1=C(C3=O)[C@@H]2CCC(=O)[C@@]2(C)C[C@H]1OC(C)=O` [Wortmannin, reference compound], the “inhibition of chemotaxis at 0.01 μM” value ([1]; 0.01 μM inhibitor alone, 0.01 µM) was 28%, the inhibition at 0.001 µM ([1]; Homo sapiens, Neutrophil, read-out: inhibition of chemotaxis at 0.001 μM, 0.001 μM inhibitor, 3.125 nM IL-8) was 25 to 30% and the inhibition at 0.01 µM ([1]; Homo sapiens, Neutrophil) was roughly 30%. For the same molecule, the inhibition at 1 µM ([1]; Homo sapiens, Neutrophil, read-out: inhibition of chemotaxis at 1 μM, 1 μM inhibitor, 3.125 nM IL-8) was 100%, the IC50 ([1]; Homo sapiens, Neutrophil) was 20 nM and the “cytotoxicity effects on the PMNs” value (PMNs) was “No visible cytotoxicity effects”.
